From PMC6154558, “Discovery and Biological Evaluation of a Series of Pyrrolo[2,3-b]pyrazines as Novel FGFR Inhibitors” (Molecules : A Journal of Synthetic Chemistry and Natural …, 2017) come the findings set out here.

Several values for one entry are separate records, joined by “and”; a condition that tells them apart may be missing. Equal values may be shown once.

The target of assay [1] is T1, FGFR1 (Homo sapiens, UniProt P11362).
T1 construct: purchased Millipore
The assay can be described thus: ELISA kinase assay, FGFR1. Particulars: for inhibition at 1 µM: 1 μM compound; for inhibition at 0.01 µM: 0.01 μM compound; for IC50: mean ± SD from two separate experiments. The class given is biochemical. The protocol: (§1) The effects of compounds on the activities of indicated (FGFR1 and c-Met) kinases were determined using enzyme-linked immunosorbent assays (ELISAs) with purified recombinant proteins. Briefly, 20 μg/mL poly (Glu, Tyr)4:1 (Sigma, St. Louis, MO, USA) was pre-coated in 96-well plates as a substrate. A 50-μL aliquot of 10 μmol/L ATP solution diluted in kinase reaction buffer (50 mmol/L HEPES (pH 7.4), 50 mmol/L MgCl2, 0.5 mmol/L MnCl2, 0.2 mmol/L Na3VO4, and 1 mmol/L DTT) was added to each well; 1 μL of various concentrations of compounds diluted in 1% DMSO (v/v) (Sigma) were then added to each reaction well. DMSO (1%, v/v) was used as the negative control. The kinase reaction was initiated by the addition of purified tyrosine kinase proteins FGFR1 (Millipore, Darmstadt, Germany) or c-Met (Millipore) diluted in 49 μL of kinase reaction buffer. After incubation for 60 min at 37 °C, the plate was washed three times with phosphate-buffered saline (PBS) containing 0.1% Tween 20 (T-PBS). Anti-phosphotyrosine (PY99) antibody (Sanra Cruz, Dallas, USA) (100 μL; 1:500, diluted in 5 mg/mL bovine serum albumin (BSA) T-PBS) was then added. After a 30-min incubation at 37 °C, the plate was washed three times, and 100 μL horseradish peroxidase-conjugated goat anti-mouse IgG (Calbiochem, Shanghai, China) (1:2000, diluted in 5 mg/mL BSA T-PBS) was added. The plate was then incubated at 37°C for 30 min and washed 3 times. A 100-μL aliquot of a solution containing 0.03% H2O2 and 2 mg/mL o-phenylenediamine in 0.1 mol/L citrate buffer (pH 5.5) was added. The reaction was terminated by the addition of 50 μL of 2 mol/L H2SO4 as the color changed, and the plate was analyzed using a multi-well spectrophotometer (SpectraMAX 190, Molecular Devices, Palo Alto, CA, USA) at 490 nm. […] (1) where IR, A490 and A490control are the inhibition rate, the absorbance value of the tested compound at 490 nm and the absorbance value of the negative control compound at 490 nm, respectively. The IC50 values were calculated from the inhibition curves in two separate experiments.
On the technique in general: ELISA stands for enzyme-linked immunosorbent assay.

In assay [2] the target is T2, c-Met (Homo sapiens, UniProt P08581).
T2 construct: purchased Millipore
T2 sequence (P08581 25-1390): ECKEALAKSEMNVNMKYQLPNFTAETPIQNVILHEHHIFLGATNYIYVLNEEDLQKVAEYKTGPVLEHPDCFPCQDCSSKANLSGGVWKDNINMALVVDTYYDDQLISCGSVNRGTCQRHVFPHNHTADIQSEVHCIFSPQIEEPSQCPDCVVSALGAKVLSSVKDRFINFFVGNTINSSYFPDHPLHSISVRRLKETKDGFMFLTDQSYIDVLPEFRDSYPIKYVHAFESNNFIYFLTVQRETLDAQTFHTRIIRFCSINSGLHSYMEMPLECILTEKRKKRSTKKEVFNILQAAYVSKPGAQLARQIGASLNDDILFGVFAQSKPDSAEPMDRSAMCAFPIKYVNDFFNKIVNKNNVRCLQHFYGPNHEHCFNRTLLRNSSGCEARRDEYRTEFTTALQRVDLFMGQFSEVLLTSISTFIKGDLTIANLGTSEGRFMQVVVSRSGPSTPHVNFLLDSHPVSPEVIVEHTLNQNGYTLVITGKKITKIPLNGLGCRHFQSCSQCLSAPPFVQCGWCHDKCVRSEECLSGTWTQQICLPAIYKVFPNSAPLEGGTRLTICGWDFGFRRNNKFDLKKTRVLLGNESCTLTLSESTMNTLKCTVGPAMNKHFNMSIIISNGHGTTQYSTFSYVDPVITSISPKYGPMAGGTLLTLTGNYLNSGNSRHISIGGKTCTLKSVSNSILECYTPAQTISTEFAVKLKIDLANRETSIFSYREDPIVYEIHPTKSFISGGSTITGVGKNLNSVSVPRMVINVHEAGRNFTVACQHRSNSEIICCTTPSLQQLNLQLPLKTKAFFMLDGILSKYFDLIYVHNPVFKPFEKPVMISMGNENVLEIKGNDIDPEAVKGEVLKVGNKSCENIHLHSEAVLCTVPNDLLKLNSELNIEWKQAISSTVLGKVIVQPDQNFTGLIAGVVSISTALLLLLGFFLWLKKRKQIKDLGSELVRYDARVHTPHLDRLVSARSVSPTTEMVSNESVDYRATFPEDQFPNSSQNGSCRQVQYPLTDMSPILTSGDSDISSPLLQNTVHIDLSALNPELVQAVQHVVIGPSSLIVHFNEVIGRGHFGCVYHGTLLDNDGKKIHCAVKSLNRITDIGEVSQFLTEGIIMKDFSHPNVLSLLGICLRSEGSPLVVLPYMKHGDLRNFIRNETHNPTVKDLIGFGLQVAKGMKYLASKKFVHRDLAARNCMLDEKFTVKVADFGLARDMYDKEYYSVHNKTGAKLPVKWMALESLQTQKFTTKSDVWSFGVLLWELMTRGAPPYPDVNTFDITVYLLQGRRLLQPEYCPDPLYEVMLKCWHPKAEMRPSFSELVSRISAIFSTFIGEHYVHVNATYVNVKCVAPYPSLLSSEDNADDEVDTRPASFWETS
The assay can be described thus: ELISA kinase assay, c-Met. The format is biochemical. The settings on record: for inhibition at 0.01 µM: 0.01 μM compound; for inhibition at 0.1 µM: 0.1 μM compound; for inhibition at 1 µM: 1 μM compound. The protocol: as §1

Setting [3] is: 10 μM compound, mean from two separate experiments.

T1 sequence (P11362 22-822): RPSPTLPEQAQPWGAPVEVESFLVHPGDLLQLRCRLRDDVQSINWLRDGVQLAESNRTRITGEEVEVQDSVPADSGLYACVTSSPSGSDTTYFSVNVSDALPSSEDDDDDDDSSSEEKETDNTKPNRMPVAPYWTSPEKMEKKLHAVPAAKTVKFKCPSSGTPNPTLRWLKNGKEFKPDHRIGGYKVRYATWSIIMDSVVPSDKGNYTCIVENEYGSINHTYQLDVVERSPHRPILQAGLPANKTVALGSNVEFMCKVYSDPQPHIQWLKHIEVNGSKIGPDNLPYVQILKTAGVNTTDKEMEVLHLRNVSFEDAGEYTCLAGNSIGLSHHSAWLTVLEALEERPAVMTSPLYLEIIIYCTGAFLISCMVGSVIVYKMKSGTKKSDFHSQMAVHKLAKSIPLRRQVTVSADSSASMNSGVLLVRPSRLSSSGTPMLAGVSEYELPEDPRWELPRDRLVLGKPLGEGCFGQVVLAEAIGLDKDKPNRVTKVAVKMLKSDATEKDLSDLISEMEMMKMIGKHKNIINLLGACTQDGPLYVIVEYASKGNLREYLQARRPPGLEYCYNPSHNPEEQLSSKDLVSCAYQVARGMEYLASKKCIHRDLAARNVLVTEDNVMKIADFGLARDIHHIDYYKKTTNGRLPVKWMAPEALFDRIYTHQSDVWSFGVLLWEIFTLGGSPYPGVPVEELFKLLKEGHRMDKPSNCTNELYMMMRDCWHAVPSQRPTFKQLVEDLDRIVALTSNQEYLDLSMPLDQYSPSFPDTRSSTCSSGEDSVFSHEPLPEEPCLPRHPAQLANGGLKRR

Turning to `Cn1cc(-c2cnc3ccn(S(=O)(=O)c4ccc([N+](=O)[O-])cc4)c3n2)cn1` [Compound 18, 3-(1-Methyl-1H-pyrazol-4-yl)-5-((4-nitrophenyl)sulfonyl)-5H-pyrrolo[2,3-b]pyrazine], the inhibition at 0.1 µM in assay [1] (0.1 μM compound) was 17.4%. Moreover, in assay [1], testing at 1 µM gave an inhibition of 12.8%. For the same compound, 10 µM produced 15.5% inhibition in assay [1] (setting [3]).

The compound `Cn1cc(-c2cnc3ccn(S(=O)(=O)c4ccc(F)cc4F)c3n2)cn1` [Compound 15, 5-((2,4-Difluorophenyl)sulfonyl)-3-(1-methyl-1H-pyrazol-4-yl)-5H-pyrrolo[2,3-b]pyrazine] had an inhibition at 0.1 µM in assay [1] (0.1 μM compound) of 23.6%. In assay [1], testing at 1 µM gave an inhibition of 31.2%. The compound further yielded an inhibition at 10 µM in assay [1] (setting [3]) of 55.6%.

For `CC(=O)Cn1cc(-c2cnc3ccn(S(=O)(=O)c4cccc([N+](=O)[O-])c4)c3n2)cn1` [Compound 25, 1-(4-(5-((3-Nitrophenyl)sulfonyl)-5H-pyrrolo[2,3-b]pyrazin-3-yl)-1H-pyrazol-1-yl)propan-2-one], in assay [1], the inhibition at 0.01 µM is 32.8%; testing at 1 µM gave an inhibition of 63.4%; the IC50 is 45 nM and 45.9 nM. At 0.1 µM the inhibition in assay [1] (0.1 μM compound) was 55.7%. In assay [2], this compound had an inhibition at 0.01 µM of 5.5%, an inhibition at 0.1 µM of 5% and an inhibition at 1 µM of 14.1%.

As to `Cn1cc(-c2cnc3ccn(S(=O)(=O)c4ccccc4)c3c2)cn1` [Compound 8, 6-(1-Methyl-1H-pyrazol-4-yl)-1-(phenylsulfonyl)-1H-pyrrolo[3,2-b]pyridine], the inhibition at 1 µM in assay [1] worked out at 31.6%. The same compound showed an inhibition at 10 µM in assay [1] (setting [3]) of 80.4%.

`Cn1cc(-c2cnc3ccn(S(=O)(=O)C4CCCCC4)c3n2)cn1` [Compound 12, 5-(Cyclohexylsulfonyl)-3-(1-methyl-1H-pyrazol-4-yl)-5H-pyrrolo[2,3-b]pyrazine] returned an inhibition at 0.1 µM in assay [1] (0.1 μM compound) of 29.4%. The same compound registered an inhibition at 1 µM in assay [1] of 24.1%. For the same compound, at 10 µM the inhibition in assay [1] (setting [3]) was 53.3%.

In assay [1] (0.1 μM compound), `Cn1cc(-c2cnc3ccn(S(=O)(=O)c4ccccc4)c3n2)cn1` [Compound 9, 3-(1-Methyl-1H-pyrazol-4-yl)-5-(phenylsulfonyl)-5H-pyrrolo[2,3-b]pyrazine] registered an inhibition at 0.1 µM of 46%. In assay [1] (setting [3]), this compound displayed an inhibition at 10 µM of 93.3%. Besides, the “FGFR1 Inhibition (%)” value in assay [1] (10 μM compound, mean from two separate experiments, 10 µM) was 90.5%.

In assay [1], `COc1cccc2cc(-c3cnc4ccn(S(=O)(=O)c5cccc([N+](=O)[O-])c5)c4n3)[nH]c12` [Compound 28, 3-(7-Methoxy-1H-indol-2-yl)-5-((3-nitrophenyl)sulfonyl)-5H-pyrrolo[2,3-b]pyrazine] yielded an inhibition at 0.01 µM of 27.2% and an inhibition at 1 µM of 62.4%. Testing at 0.1 µM in assay [1] (0.1 μM compound) gave an inhibition of 34%.

As to `Cn1cc(-c2cnc3cnn(CCc4ccccc4)c3c2)cn1` [Compound 7, 6-(1-Methyl-1H-pyrazol-4-yl)-1-phenethyl-1H-pyrazolo[4,3-b]pyridine], the inhibition at 10 µM in assay [1] (setting [3]) stood at 55.9%.

In turn, `Cc1ncc(-c2cnn(C)c2)cc1NS(=O)(=O)c1ccccc1` [Compound 10, N-(2-Methyl-5-(1-methyl-1H-pyrazol-4-yl)pyridin-3-yl)benzenesulfonamide] had an inhibition at 1 µM in assay [1] of 15.4%. The same compound had an inhibition at 10 µM in assay [1] (setting [3]) of 50%.

`CCC(=O)n1cc(-c2cnc3ccn(S(=O)(=O)c4cccc([N+](=O)[O-])c4)c3n2)cn1` [Compound 24, 1-(4-(5-((3-Nitrophenyl)sulfonyl)-5H-pyrrolo[2,3-b]pyrazin-3-yl)-1H-pyrazol-1-yl)propan-1-one]: in assay [1], at 0.01 µM the inhibition was 29.3% and the inhibition at 1 µM was 60.9%. In assay [1] (0.1 μM compound), the inhibition at 0.1 µM was below 40%. For the same compound, the “FGFR1 Inhibition (%)” value in assay [1] (0.1 μM compound, 0.1 µM) was determined as 30.2%.

With `CC(=O)n1cc(-c2cnc3ccn(S(=O)(=O)c4cccc([N+](=O)[O-])c4)c3n2)cn1` [Compound 23, 1-(4-(5-((3-Nitrophenyl)sulfonyl)-5H-pyrrolo[2,3-b]pyrazin-3-yl)-1H-pyrazol-1-yl)ethan-1-one], in assay [1], 0.01 µM produced 36.5% inhibition and the inhibition at 1 µM was found to be 58.8%. For the same compound, the inhibition at 0.1 µM in assay [1] (0.1 μM compound) was below 40%. The “FGFR1 Inhibition (%)” value in assay [1] (0.1 μM compound, 0.1 µM) was determined as 37.8%.

Consider `O=[N+]([O-])c1cccc(S(=O)(=O)n2ccc3ncc(-c4ccc(CO)cc4)nc32)c1` [Compound 27, (4-(5-((3-Nitrophenyl)sulfonyl)-5H-pyrrolo[2,3-b]pyrazin-3-yl)phenyl)methanol], for which, in assay [1] (0.1 μM compound), the inhibition at 0.1 µM is 52.2%. In addition, in assay [1], testing at 1 µM gave an inhibition of 75.5%; the IC50 was 113 nM and 114 nM. In addition, in assay [2], 0.01 µM produced 1.1% inhibition, the inhibition at 0.1 µM was 8.4% and testing at 1 µM gave an inhibition of 30.1%.

For the compound `Cn1cc(-c2cnc3ccn(S(=O)(=O)c4ccc(N)cc4)c3n2)cn1` [Compound 20, 4-((3-(1-Methyl-1H-pyrazol-4-yl)-5H-pyrrolo[2,3-b]pyrazin-5-yl)sulfonyl)aniline], in assay [1] (0.1 μM compound), the inhibition at 0.1 µM was determined as 31.8%. The same compound yielded an inhibition at 1 µM in assay [1] of 24.2%. The inhibition at 10 µM in assay [1] (setting [3]) came out at 42.4%.

In assay [1] (setting [3]), `Cn1cc(-c2cnc3cnn(Cc4ccccc4)c3c2)cn1` [Compound 6, 1-Benzyl-6-(1-methyl-1H-pyrazol-4-yl)-1H-pyrazolo[4,3-b]pyridine] displayed an inhibition at 10 µM of 53%.

Take `Cn1cc(-c2cnc3ccn(S(=O)(=O)c4ccc(Cl)cc4)c3n2)cn1` [Compound 14, 5-((4-Chlorophenyl)sulfonyl)-3-(1-methyl-1H-pyrazol-4-yl)-5H-pyrrolo[2,3-b]pyrazine]: the inhibition at 0.1 µM in assay [1] (0.1 μM compound) was found to be 22%. The compound further showed an inhibition at 1 µM in assay [1] of 27.2%. In assay [1] (setting [3]), this compound registered an inhibition at 10 µM of 45.2%.

With `Cn1cc(-c2cnc3ccn(S(=O)(=O)c4ccccc4C#N)c3n2)cn1` [Compound 13, 2-((3-(1-Methyl-1H-pyrazol-4-yl)-5H-pyrrolo[2,3-b]pyrazin-5-yl)sulfonyl)benzonitrile], in assay [1] (0.1 μM compound), the inhibition at 0.1 µM came to 40.3%. The compound also registered an inhibition at 1 µM in assay [1] of 32.6%. In addition, in assay [1] (setting [3]), the inhibition at 10 µM stood at 59.7%.

On to `Cn1cc(-c2cnc3ccn(S(=O)(=O)C4CCCC4)c3n2)cn1` [Compound 11, 5-(Cyclopentylsulfonyl)-3-(1-methyl-1H-pyrazol-4-yl)-5H-pyrrolo[2,3-b]pyrazine], for which at 0.1 µM the inhibition in assay [1] (0.1 μM compound) was 26.8%. This compound returned an inhibition at 1 µM in assay [1] of 20.8%. The compound further came in with an inhibition at 10 µM in assay [1] (setting [3]) of 34.7%.

In turn, `Cn1cc(-c2cnc3cnn(S(=O)(=O)c4ccccc4)c3c2)cn1` [Compound 4, 6-(1-Methyl-1H-pyrazol-4-yl)-1-(phenylsulfonyl)-1H-pyrazolo[4,3-b]pyridine] yielded an inhibition at 1 µM in assay [1] of 47.1%. For the same compound, in assay [1] (setting [3]), 10 µM produced 87.8% inhibition.

Take `CCC(=O)Nc1cccc(S(=O)(=O)n2ccc3ncc(-c4cnn(C)c4)nc32)c1` [Compound 22, N-(3-((3-(1-Methyl-1H-pyrazol-4-yl)-5H-pyrrolo[2,3-b]pyrazin-5-yl)sulfonyl)phenyl)propionamide]: the inhibition at 0.1 µM in assay [1] (0.1 μM compound) stood at 27.7%. Also, in assay [1], the inhibition at 1 µM is 17.3%. In addition, testing at 10 µM in assay [1] (setting [3]) gave an inhibition of 38.7%.

For `Cn1cc(-c2cnc3cnn(S(=O)(=O)Cc4ccccc4)c3c2)cn1` [Compound 5, 1-(Benzylsulfonyl)-6-(1-methyl-1H-pyrazol-4-yl)-1H-pyrazolo[4,3-b]pyridine], the inhibition at 10 µM in assay [1] (setting [3]) is 46.1%.

In assay [1] (0.1 μM compound), `CC(=O)Nc1cccc(S(=O)(=O)n2ccc3ncc(-c4cnn(C)c4)nc32)c1` [Compound 21, N-(3-((3-(1-Methyl-1H-pyrazol-4-yl)-5H-pyrrolo[2,3-b]pyrazin-5-yl)sulfonyl)phenyl)acetamide] came in with an inhibition at 0.1 µM of 44.7%. The inhibition at 1 µM in assay [1] was determined as 50.9%. The same compound showed an inhibition at 10 µM in assay [1] (setting [3]) of 79%.

In turn, `CC(=O)c1ccc(-c2cnc3ccn(S(=O)(=O)c4cccc([N+](=O)[O-])c4)c3n2)cc1` [Compound 26, 1-(4-(5-((3-Nitrophenyl)sulfonyl)-5H-pyrrolo[2,3-b]pyrazin-3-yl)phenyl)ethan-1-one] registered an inhibition at 0.1 µM in assay [1] (0.1 μM compound) of 35.7%. The inhibition at 1 µM in assay [1] amounted to 57.9%.

In the case of `Cn1cc(-c2cnc3ccn(S(=O)(=O)c4ccc(Cl)c(Cl)c4)c3n2)cn1` [Compound 16, 5-((3,4-Dichlorophenyl)sulfonyl)-3-(1-methyl-1H-pyrazol-4-yl)-5H-pyrrolo[2,3-b]pyrazine], in assay [1] (0.1 μM compound), the inhibition at 0.1 µM amounted to 13.6%. Also, the inhibition at 1 µM in assay [1] is 34.8%. This compound came in with an inhibition at 10 µM in assay [1] (setting [3]) of 74.5%.

In the case of `Cn1cc(-c2cnc3ccn(S(=O)(=O)c4cccc(N)c4)c3n2)cn1` [Compound 19, 3-((3-(1-Methyl-1H-pyrazol-4-yl)-5H-pyrrolo[2,3-b]pyrazin-5-yl)sulfonyl)aniline], 0.1 µM produced 34.7% inhibition in assay [1] (0.1 μM compound). Moreover, in assay [1], the inhibition at 1 µM was 57.5%. Further, the inhibition at 10 µM in assay [1] (setting [3]) came to 82.2%.

By inhibition is commonly meant how much of the control response was suppressed. For orientation: IC50 means the concentration that gives 50% inhibition. Low values mean greater potency, high ones weaker potency.
